pIC50: −log10 of the molar value.
Biological target: T1, Matrilysin (Homo sapiens, UniProt P09237)
T1 sequence (P09237 whole entry): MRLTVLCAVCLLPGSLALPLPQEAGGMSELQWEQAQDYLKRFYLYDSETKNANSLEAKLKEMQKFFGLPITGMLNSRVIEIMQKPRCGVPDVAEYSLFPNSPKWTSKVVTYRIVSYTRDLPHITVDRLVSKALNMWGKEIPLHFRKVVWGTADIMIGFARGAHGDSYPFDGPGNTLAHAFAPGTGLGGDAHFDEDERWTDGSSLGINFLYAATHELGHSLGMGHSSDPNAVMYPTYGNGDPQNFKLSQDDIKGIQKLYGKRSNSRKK
Test: In vitro inhibitory activity against human recombinant matrix metalloprotease 7
Conditions: not given

| SMILES | pIC50 |
| --- | --- |
| C=CCC(C(=O)NO)C(CC(C)C)C(=O)N[C@@H](Cc1ccccc1)C(=O)c1cc[nH]c1 (single isomer, unassigned) | 8.10 |
| C=CCC(C(=O)NO)C(CC(C)C)C(=O)N[C@@H](Cc1ccccc1)C(=O)c1nccs1 (single isomer, unassigned) | 6.66 |
| CC(C)C[C@H]1C(=O)N[C@H](C(=O)c2ccccc2)Cc2ccc(cc2)OCCCC[C@@H]1C(=O)NO | 8.48 |
| C=CCC(C(=O)NO)C(CC(C)C)C(=O)N[C@@H](Cc1ccccc1)C(=O)c1ncco1 (single isomer, unassigned) | 8.38 |
| C=CCC(C(=O)NO)C(CC(C)C)C(=O)N[C@@H](Cc1ccccc1)C(=O)c1cccnc1 (single isomer, unassigned) | 8.07 |
| CC(C)C[C@H]1C(=O)N[C@H](C(=O)c2ccc(S(C)(=O)=O)cc2)Cc2ccc(cc2)OCCCC[C@@H]1C(=O)NO | 8.24 |
| CC(C)C[C@H]1C(=O)N[C@H](C(=O)c2c[nH]c3ccccc23)Cc2ccc(cc2)OCCCCC[C@@H]1C(=O)NO | 8.51 |
| CC(C)C[C@H]1C(=O)N[C@H](C(=O)c2ccc(C(C)(C)C)cc2)Cc2ccc(cc2)OCCCC[C@@H]1C(=O)NO | 7.40 |
| C=CCC(C(=O)NO)C(CC(C)C)C(=O)N[C@@H](Cc1ccccc1)C(=O)c1cn(C)c2ccccc12 (single isomer, unassigned) | 7.54 |

Compounds with a higher pIC50, results first:

| pIC50 | SMILES |
| --- | --- |
| 8.66 | CC(C)C[C@H]1C(=O)N[C@H](C(=O)c2ccccc2)Cc2ccc(cc2)OCCCCC[C@@H]1C(=O)NO |
| 9.11 | C=CCC(C(=O)NO)C(CC(C)C)C(=O)N[C@H](C(=O)c1c[nH]c2ccccc12)C(C)(C)C (single isomer, unassigned) |
| 9.52 | CC(C)CC(C(=O)N[C@H](C(=O)c1c[nH]c2ccccc12)C(C)(C)C)C(O)C(=O)NO (single isomer, unassigned) |
| 8.82 | CC(C)C[C@H]1C(=O)N[C@H](C(=O)c2ccc(CO)cc2)Cc2ccc(cc2)OCCCC[C@@H]1C(=O)NO |
| 8.92 | C=CCC(C(=O)NO)C(CC(C)C)C(=O)N[C@@H](Cc1ccccc1)C(=O)c1ccc[nH]1 (single isomer, unassigned) |

Biological target: T2, 72 kDa type IV collagenase (Homo sapiens, UniProt P08253)
Test: In vitro inhibitory activity against matrix metalloprotease 2 isolated from human HT1080 fibrosarcoma cells induced with TNF
Conditions: not given

T2 sequence (P08253 whole entry): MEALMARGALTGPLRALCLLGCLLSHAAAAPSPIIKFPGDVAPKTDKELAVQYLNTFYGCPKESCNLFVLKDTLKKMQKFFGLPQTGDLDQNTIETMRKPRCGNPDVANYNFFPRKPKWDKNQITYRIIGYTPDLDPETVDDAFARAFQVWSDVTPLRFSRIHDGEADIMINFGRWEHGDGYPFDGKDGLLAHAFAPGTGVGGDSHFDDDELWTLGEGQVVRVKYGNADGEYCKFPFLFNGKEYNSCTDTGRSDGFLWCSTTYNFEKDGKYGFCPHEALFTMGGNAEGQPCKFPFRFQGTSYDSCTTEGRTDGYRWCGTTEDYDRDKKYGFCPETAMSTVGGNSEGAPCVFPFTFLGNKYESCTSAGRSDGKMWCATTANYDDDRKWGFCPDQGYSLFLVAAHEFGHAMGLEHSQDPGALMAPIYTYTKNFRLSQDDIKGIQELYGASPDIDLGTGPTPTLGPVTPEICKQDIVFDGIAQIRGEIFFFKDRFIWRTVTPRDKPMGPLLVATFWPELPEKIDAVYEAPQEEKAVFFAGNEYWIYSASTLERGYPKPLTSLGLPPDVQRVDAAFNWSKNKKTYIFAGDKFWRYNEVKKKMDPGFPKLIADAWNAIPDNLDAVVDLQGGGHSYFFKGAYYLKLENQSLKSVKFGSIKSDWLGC

| SMILES | pIC50 |
| --- | --- |
| C=CCC(C(=O)NO)C(CC(C)C)C(=O)N[C@@H](Cc1ccccc1)C(=O)c1cc[nH]c1 (single isomer, unassigned) | 8.57 |
| CC(C)C[C@H]1C(=O)N[C@H](C(=O)c2ccccc2)Cc2ccc(cc2)OCCCC[C@@H]1C(=O)NO | 8.02 |
| C=CCC(C(=O)NO)C(CC(C)C)C(=O)N[C@@H](Cc1ccccc1)C(=O)c1ncco1 (single isomer, unassigned) | 8.14 |
| C=CCC(C(=O)NO)C(CC(C)C)C(=O)N[C@@H](Cc1ccccc1)C(=O)c1cccnc1 (single isomer, unassigned) | 8.07 |
| CC(C)C[C@H]1C(=O)N[C@H](C(=O)c2ccc(S(C)(=O)=O)cc2)Cc2ccc(cc2)OCCCC[C@@H]1C(=O)NO | 8.07 |
| CC(C)C[C@H]1C(=O)N[C@H](C(=O)c2c[nH]c3ccccc23)Cc2ccc(cc2)OCCCCC[C@@H]1C(=O)NO | 8.21 |
| CC(C)C[C@H]1C(=O)N[C@H](C(=O)c2ccc(C(C)(C)C)cc2)Cc2ccc(cc2)OCCCC[C@@H]1C(=O)NO | 7.04 |
| C=CCC(C(=O)NO)C(CC(C)C)C(=O)N[C@@H](Cc1ccccc1)C(=O)c1cn(C)c2ccccc12 (single isomer, unassigned) | 7.64 |

Results, then the compound that gave them:

| pIC50 | SMILES |
| --- | --- |
| 8.41 | CC(C)C[C@H]1C(=O)N[C@H](C(=O)c2ccccc2)Cc2ccc(cc2)OCCCCC[C@@H]1C(=O)NO |
| 8.80 | C=CCC(C(=O)NO)C(CC(C)C)C(=O)N[C@H](C(=O)c1c[nH]c2ccccc12)C(C)(C)C (single isomer, unassigned) |
| 9.42 | CC(C)CC(C(=O)N[C@H](C(=O)c1c[nH]c2ccccc12)C(C)(C)C)C(O)C(=O)NO (single isomer, unassigned) |
| 8.29 | CC(C)C[C@H]1C(=O)N[C@H](C(=O)c2ccc(CO)cc2)Cc2ccc(cc2)OCCCC[C@@H]1C(=O)NO |
| 8.96 | C=CCC(C(=O)NO)C(CC(C)C)C(=O)N[C@@H](Cc1ccccc1)C(=O)c1ccc[nH]1 (single isomer, unassigned) |

Biological target: T3, Stromelysin-1 (Homo sapiens, UniProt P08254)
Test: Inhibition of human recombinant matrix metalloprotease 3 (MMP3)
Conditions: not given

T3 sequence (P08254 whole entry): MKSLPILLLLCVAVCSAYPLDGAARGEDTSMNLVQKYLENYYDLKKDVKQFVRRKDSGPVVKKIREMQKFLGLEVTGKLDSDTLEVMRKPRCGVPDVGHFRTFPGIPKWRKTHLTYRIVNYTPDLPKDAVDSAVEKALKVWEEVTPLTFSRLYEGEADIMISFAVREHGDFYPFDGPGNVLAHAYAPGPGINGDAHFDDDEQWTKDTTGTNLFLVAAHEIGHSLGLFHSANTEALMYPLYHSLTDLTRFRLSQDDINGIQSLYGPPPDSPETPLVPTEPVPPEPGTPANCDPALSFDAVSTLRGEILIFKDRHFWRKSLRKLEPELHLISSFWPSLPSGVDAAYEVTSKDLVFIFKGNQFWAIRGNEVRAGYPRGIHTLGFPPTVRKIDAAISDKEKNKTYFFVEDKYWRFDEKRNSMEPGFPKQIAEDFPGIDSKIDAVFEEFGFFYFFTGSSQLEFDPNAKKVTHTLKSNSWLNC

| pIC50 | SMILES |
| --- | --- |
| 6.44 | C=CCC(C(=O)NO)C(CC(C)C)C(=O)N[C@@H](Cc1ccccc1)C(=O)c1nccs1 (single isomer, unassigned) |

Tested on: not listed separately
Test: Oral bioavailability in monkey (dose 10 mg/kg)
Type: ADME, organism-based
Conditions: primates, in vivo

| bioavailability | SMILES |
| --- | --- |
| 33% | CC(C)C[C@H]1C(=O)N[C@H](C(=O)c2ccccc2)Cc2ccc(cc2)OCCCC[C@@H]1C(=O)NO |
| 10% | CC(C)CC(C(=O)N[C@H](C(=O)c1c[nH]c2ccccc12)C(C)(C)C)C(O)C(=O)NO (single isomer, unassigned) |

Biological target: T2, 72 kDa type IV collagenase
Test: Inhibition of matrix metalloprotease 2 (MMP2) of human HT1080 fibrosarcoma cells induced with TNF
Conditions: not given

| pIC50 | SMILES |
| --- | --- |
| 5.96 | C=CCC(C(=O)NO)C(CC(C)C)C(=O)N[C@@H](Cc1ccccc1)C(=O)c1nccs1 (single isomer, unassigned) |

Biological target: T3, Stromelysin-1
Test: In vitro inhibitory activity against human recombinant matrix metalloprotease 3
Conditions: not given

| pIC50 | SMILES |
| --- | --- |
| 8.05 | CC(C)C[C@H]1C(=O)N[C@H](C(=O)c2ccccc2)Cc2ccc(cc2)OCCCC[C@@H]1C(=O)NO |
| 8.00 | C=CCC(C(=O)NO)C(CC(C)C)C(=O)N[C@@H](Cc1ccccc1)C(=O)c1cccnc1 (single isomer, unassigned) |
| 8.01 | CC(C)C[C@H]1C(=O)N[C@H](C(=O)c2ccc(S(C)(=O)=O)cc2)Cc2ccc(cc2)OCCCC[C@@H]1C(=O)NO |
| 8.29 | CC(C)C[C@H]1C(=O)N[C@H](C(=O)c2c[nH]c3ccccc23)Cc2ccc(cc2)OCCCCC[C@@H]1C(=O)NO |
| 8.47 | CC(C)C[C@H]1C(=O)N[C@H](C(=O)c2ccc(CO)cc2)Cc2ccc(cc2)OCCCC[C@@H]1C(=O)NO |
| 6.96 | CC(C)C[C@H]1C(=O)N[C@H](C(=O)c2ccc(C(C)(C)C)cc2)Cc2ccc(cc2)OCCCC[C@@H]1C(=O)NO |

| SMILES | pIC50 |
| --- | --- |
| C=CCC(C(=O)NO)C(CC(C)C)C(=O)N[C@@H](Cc1ccccc1)C(=O)c1cc[nH]c1 (single isomer, unassigned) | 8.18 |
| C=CCC(C(=O)NO)C(CC(C)C)C(=O)N[C@@H](Cc1ccccc1)C(=O)c1ncco1 (single isomer, unassigned) | 8.74 |
| C=CCC(C(=O)NO)C(CC(C)C)C(=O)N[C@@H](Cc1ccccc1)C(=O)c1cn(C)c2ccccc12 (single isomer, unassigned) | 7.44 |

Tested on: not listed separately
Test: Half life was measured in monkey at dose of 10 mg/kg by po administration
Type: ADME, organism-based
Set-up: dose 10 mg/kg, route oral
Conditions: primates, in vivo

| half-life | SMILES |
| --- | --- |
| 15 h | CC(C)C[C@H]1C(=O)N[C@H](C(=O)c2ccccc2)Cc2ccc(cc2)OCCCC[C@@H]1C(=O)NO |
| 12 h | CC(C)CC(C(=O)N[C@H](C(=O)c1c[nH]c2ccccc12)C(C)(C)C)C(O)C(=O)NO (single isomer, unassigned) |

Biological target: T4, Interstitial collagenase (Homo sapiens, UniProt P03956)
T4 sequence (P03956 whole entry): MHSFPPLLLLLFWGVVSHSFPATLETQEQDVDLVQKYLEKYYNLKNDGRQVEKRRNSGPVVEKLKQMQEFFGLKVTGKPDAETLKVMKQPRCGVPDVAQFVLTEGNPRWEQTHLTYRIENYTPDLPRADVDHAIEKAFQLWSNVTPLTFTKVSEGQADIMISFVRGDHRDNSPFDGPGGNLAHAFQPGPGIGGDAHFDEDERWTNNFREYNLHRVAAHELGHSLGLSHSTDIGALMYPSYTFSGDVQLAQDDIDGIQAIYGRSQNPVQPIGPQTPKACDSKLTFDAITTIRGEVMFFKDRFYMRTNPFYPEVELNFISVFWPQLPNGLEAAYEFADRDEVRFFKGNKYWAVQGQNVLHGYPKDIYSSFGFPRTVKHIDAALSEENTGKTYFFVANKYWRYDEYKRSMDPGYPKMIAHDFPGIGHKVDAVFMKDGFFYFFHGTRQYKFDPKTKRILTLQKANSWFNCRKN
Test: In vitro inhibitory activity against matrix metalloprotease 1 isolated from the culture medium of human skin fibroblasts induced with PMA
Conditions: not given

| SMILES | pIC50 |
| --- | --- |
| C=CCC(C(=O)NO)C(CC(C)C)C(=O)N[C@@H](Cc1ccccc1)C(=O)c1cc[nH]c1 (single isomer, unassigned) | 8.21 |
| CC(C)C[C@H]1C(=O)N[C@H](C(=O)c2ccccc2)Cc2ccc(cc2)OCCCC[C@@H]1C(=O)NO | 7.89 |
| C=CCC(C(=O)NO)C(CC(C)C)C(=O)N[C@@H](Cc1ccccc1)C(=O)c1ncco1 (single isomer, unassigned) | 8.57 |
| C=CCC(C(=O)NO)C(CC(C)C)C(=O)N[C@@H](Cc1ccccc1)C(=O)c1cccnc1 (single isomer, unassigned) | 7.85 |
| CC(C)C[C@H]1C(=O)N[C@H](C(=O)c2ccc(S(C)(=O)=O)cc2)Cc2ccc(cc2)OCCCC[C@@H]1C(=O)NO | 7.22 |
| CC(C)C[C@H]1C(=O)N[C@H](C(=O)c2c[nH]c3ccccc23)Cc2ccc(cc2)OCCCCC[C@@H]1C(=O)NO | 8.32 |
| CC(C)C[C@H]1C(=O)N[C@H](C(=O)c2ccc(C(C)(C)C)cc2)Cc2ccc(cc2)OCCCC[C@@H]1C(=O)NO | 6.57 |
| C=CCC(C(=O)NO)C(CC(C)C)C(=O)N[C@@H](Cc1ccccc1)C(=O)c1cn(C)c2ccccc12 (single isomer, unassigned) | 8.33 |

Next, values leading:

| pIC50 | SMILES |
| --- | --- |
| 8.04 | CC(C)C[C@H]1C(=O)N[C@H](C(=O)c2ccccc2)Cc2ccc(cc2)OCCCCC[C@@H]1C(=O)NO |
| 8.92 | C=CCC(C(=O)NO)C(CC(C)C)C(=O)N[C@H](C(=O)c1c[nH]c2ccccc12)C(C)(C)C (single isomer, unassigned) |
| 9.59 | CC(C)CC(C(=O)N[C@H](C(=O)c1c[nH]c2ccccc12)C(C)(C)C)C(O)C(=O)NO (single isomer, unassigned) |
| 8.30 | CC(C)C[C@H]1C(=O)N[C@H](C(=O)c2ccc(CO)cc2)Cc2ccc(cc2)OCCCC[C@@H]1C(=O)NO |
| 8.59 | C=CCC(C(=O)NO)C(CC(C)C)C(=O)N[C@@H](Cc1ccccc1)C(=O)c1ccc[nH]1 (single isomer, unassigned) |

Source: ChEMBL document CHEMBL1130676, “Aryl ketones as novel replacements for the C-terminal amide bond of succinyl hydroxamate MMP inhibitors” (Bioorg Med Chem Lett, 1998)
